Measurements reported in US11242344B2, “(4-hydroxypyrrolidin-2-yl)-heterocyclic compounds and methods of use thereof” (Genentech, Inc., priority 2017, dated 2022).

Columns and labels:
[1] = target: VHL co-expressed with Elongins B and C (Homo sapiens (Human), UniProt P40337); experiment: Surface Plasmon Resonance Assay; assay type: binding; conditions: SPR measured VHL affinity; geometric mean where more than one measurement
How it was run: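 Binding kinetics by SPR at 20 °C: compound concentration series run from low to high at 80 μL/min over VHL–Elongin B/C complex, immobilized via avidin tag on SA chip. Buffer was HEPES pH 7.2 with 150 mM NaCl, TCEP, Tween 20, PEG3350 and 2% DMSO; association/dissociation times adjusted per compound.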

[2] = target: NanoLuc VHL fusion protein (Homo sapiens (Human), UniProt P40337); experiment: VHL HEK-293 BRET Assay (NanoBRET Target Engagement); assay type: cell-based; conditions: geometric mean where more than one measurement
NanoLuc VHL fusion protein, sequence (P40337 whole entry, looked up, the tested form may be a part): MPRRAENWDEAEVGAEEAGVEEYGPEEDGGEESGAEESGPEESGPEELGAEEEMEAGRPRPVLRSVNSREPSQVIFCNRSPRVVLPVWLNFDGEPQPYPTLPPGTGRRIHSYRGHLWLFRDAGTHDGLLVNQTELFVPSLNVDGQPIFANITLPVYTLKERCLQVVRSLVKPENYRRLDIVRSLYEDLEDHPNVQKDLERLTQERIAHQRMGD
NanoLuc VHL fusion protein, sequence (Q15370 whole entry partner, looked up, the tested form may be a part): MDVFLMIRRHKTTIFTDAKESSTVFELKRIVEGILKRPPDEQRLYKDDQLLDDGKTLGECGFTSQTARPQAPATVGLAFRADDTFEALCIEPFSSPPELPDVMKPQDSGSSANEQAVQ
NanoLuc VHL fusion protein, sequence (Q15369 whole entry partner, looked up, the tested form may be a part): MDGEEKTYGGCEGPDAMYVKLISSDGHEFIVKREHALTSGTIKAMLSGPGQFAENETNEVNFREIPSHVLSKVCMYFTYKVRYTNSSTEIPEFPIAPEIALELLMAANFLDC
Description: The VHL NanoBRET™ Target Engagement Assay analyzes the apparent affinity of test compounds for VHL in cells by competitive displacement of a VHL NanoBRET™ tracer reversibly bound to a NanoLuc® VHL fusion protein stably expressed in the cells. Test compounds were transferred to the assay plate (384 Well White Non-Binding Corning Assay Plates (Corning-3574)) using an Echo 555 Liquid Handler (Labcyte) in 2.5 nL increments and, as appropriate, intermediate stock concentrations of compounds, in order to prepare a titration series. 50 nL of control compound (10 mM; parental unlabeled VHL antagonist; see structure below) and 50 nL of DMSO (negative control) were dispensed into the appropriate control wells. DMSO was backfilled to a final volume of 50 nL as required. 50 nl per well of 1 mM VHL NanoBRET™ Tracer in DMSO (NanoBRET™ Tracer-PEG2-590 (see structure below)) was transferred into each well using an Echo 555 (ultimately yielding a final concentration of 1 uM). HEK 293 RT VHL-NanoLuc® stable cells were cultured in DMEM High Glucose with Pyruvate, 10% fetal bovine serum, 2 mg/mL of Geneticin Selective Antibiotic (50 mg/ml) and 2 mM HEPES (1 M). Cells were seeded in Opti-MEM (Life Technologies-11058-021), 1.7×10^5 cells/mL, 40 μl per well into the assay plate, centrifuged at 500 rpm for 30 seconds and incubated for 2 hours. Max Signal control wells consisted of DMSO only treated wells. Minimum Signal control wells contained of 10 uM parental unlabeled VHL antagonist (control compound—see structure below). 3× Complete Substrate plus Inhibitor Solution was prepared in Opti-MEM (consists of a 1:166 dilution of NanoBRET™ Nano-Glo® Substrate plus a 1:500 dilution of Extracellular NanoLuc® Inhibitor in Opti-MEM), and 20 ul was dispensed into each well of the 384-well plate and centrifuged at 1000 rpm for 1 minute, then incubated for 2 minutes at room temperature. Background Signal control wells were prepared without tracer for background correction steps. Plates were read using a PerkinElmer Envision Reader (model 2104-0020) equipped with Luminescence option (Mirror: BRET2 Enh (PE Barcode 659), Emission Filter: Omega 610LP (Barcode 504), 2nd Emission Filter: Umbelliferone 460 (Barcode 207), Measurement height: 6.5 mm, Measurement time: 1 s). The raw BRET ratio values were calculated by dividing the acceptor emission value (610 nm) by the donor emission value (460 nm) for each sample. To correct for background, the BRET ratio in the absence of tracer (average of no-tracer control samples) was subtracted from the BRET ratio of each sample. Raw BRET units were converted to milliBRET units (mBU) by multiplying each raw BRET value by 1,000. The normalized NanoBRET™ signal was calculated relative to the Max Signal control wells (DMSO treated control wells) and the Minimum Signal control wells. Percentage inhibition was calculated relative to the Minimum Signal control and Maximum Signal control wells. IC50 values were derived by four parameter curve fitting using the Robust method.

[3] = target: VHL Elongin B/C complex (Homo sapiens (Human), UniProt P40337); experiment: Fluorescence Polarization (FP) VHL Binding Assay; conditions: VHL binding, FP assay; geometric mean where more than one measurement
VHL Elongin B/C complex, sequence (P40337 whole entry, looked up): as the sequence (P40337 whole entry, looked up, the tested form may be a part) above
VHL Elongin B/C complex, sequence (Q15370 whole entry partner, looked up): as the sequence (Q15370 whole entry partner, looked up, the tested form may be a part) above
VHL Elongin B/C complex, sequence (Q15369 whole entry partner, looked up): as the sequence (Q15369 whole entry partner, looked up, the tested form may be a part) above
How it was run: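 Readout is polarization of a TAMRA-coupled VHL ligand (1.67 nM final) displaced from the VHL(E55-D213)/Elongin B/C complex (2.64 nM final) after 1 h incubation at room temperature in pH 8.0 Tris buffer with 1% DMSO. Data normalized to no-VHL and compound-free controls, with compound fluorescence subtracted, and fitted by four-parameter curve for IC50.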

VHL co-expressed with Elongins B and C, sequence (P40337 whole entry, looked up): as the sequence (P40337 whole entry, looked up, the tested form may be a part) above
VHL co-expressed with Elongins B and C, sequence (Q15370 whole entry partner, looked up): as the sequence (Q15370 whole entry partner, looked up, the tested form may be a part) above
VHL co-expressed with Elongins B and C, sequence (Q15369 whole entry partner, looked up): as the sequence (Q15369 whole entry partner, looked up, the tested form may be a part) above

Row | SMILES | Kd [1] [µM] | IC50 [2] [µM] | IC50 [3] [µM]
1 | Cc1cc([C@H](C(=O)N2C[C@H](O)C[C@H]2C2=NOC(c3ccc(Br)cc3)(C(F)(F)F)N2)C(C)C)on1 (single isomer, unassigned) [Example 133.3] | 36.3 | 22.6 | 34.4
2 | Cc1ncsc1-c1ccc([C@]2(C)NC(C3C[C@@H](O)CN3C(=O)[C@@H]3CCCCN3S(C)(=O)=O)=NC2=O)cc1 (single isomer, unassigned) [Example 122.1] | ≥ 150 | 100 | ≥ 400
3 | Cc1cc([C@@H](C(=O)N2C[C@H](O)C[C@H]2C2=NOC3(CCc4ccccc43)N2)C(C)C)on1 (single isomer, unassigned) [Example 130.2] | 121 | 100 | 362
4 | Cc1cc([C@@H](C(=O)N2C[C@H](O)C[C@H]2C2=NOC(c3ccc(Br)cc3)(C(F)(F)F)N2)C(C)C)on1 (single isomer, unassigned) [Example 133.1] | ≥ 150 | 100 | ≥ 400
5 | Cc1cc(C(C(=O)N2C[C@H](O)C[C@H]2C2=NN(CC(F)(F)F)C(C)(C)N2)C(C)C)on1 (single isomer, unassigned) [Example 134.1] | ≥ 150 | 100 | ≥ 400
6 | CCN1N=C([C@@H]2C[C@@H](O)CN2C(=O)C(c2cc(C)no2)C(C)C)NC1(C)C (single isomer, unassigned) [Example 115.1] | 150 | 100 | ≥ 400
7 | Cc1cc(C(C(=O)N2C[C@H](O)C[C@H]2C2=NN(c3ccccc3)C(C)(C)N2)C(C)C)on1 (single isomer, unassigned) [Example 135.2] | 6.55 | 5.67 | 9.32
8 | Cc1ncsc1-c1ccc([C@]2(C)NC(C3C[C@@H](O)CN3C(=O)C3N(S(C)(=O)=O)CCC3(C)C)=NC2=O)cc1 (single isomer, unassigned) [Example 125.4] | ≥ 150 | 100 | ≥ 400
9 | Cc1cc([C@H](C(=O)N2C[C@H](O)C[C@H]2C2=NOC3(CCCC3)N2)C(C)C)on1 [Example 127.2, (R)-1-((2S,4R)-4-hydroxy-2-(1-oxa-2,4-diazaspiro[4.4]non-2-en-3-yl)pyrrolidin-1-yl)-3-methyl-2-(3-methylisoxazol-5-yl)butan-1-one] | 16.4 | 73.2 | 50.8
10 | Cc1cc([C@H](C(=O)N2C[C@H](O)C[C@H]2C2=NO[C@](c3ccccc3)(C(F)(F)F)N2)C(C)C)on1 (mixture of isomers) [Example 114.2, (2S)-1-((2S,4R)-4-Hydroxy-2-(5-phenyl-5-(trifluoromethyl)-4,5-dihydro-1,2,4-oxadiazol-3-yl)pyrrolidin-1-yl)-3-methyl-2-(3-methylisoxazol-5-yl)butan-1-one and (2R)-1-((2S,4R)-4-Hydroxy-2-(5-phenyl-5-(trifluoromethyl)-4,5-dihydro-1,2,4-oxadiazol-3-yl)pyrrolidin-1-yl)-3-methyl-2-(3-methylisoxazol-5-yl)butan-1-one] | 150 | 100 | 400
11 | Cc1cc([C@H](C(=O)N2C[C@H](O)C[C@H]2C2=NOC(c3ccc(Br)cc3)(C(F)(F)F)N2)C(C)C)on1 (single isomer, unassigned) [Example 133.4] | 17.4 | 52.3 | 54.9
12 | CC(=O)N1CCCCC1C(=O)N1C[C@H](O)CC1C1=NC(=O)[C@](C)(c2ccc(-c3scnc3C)cc2)N1 (single isomer, unassigned) [Example 124.3] | ≥ 150 | 100 | ≥ 400
13 | Cc1cc([C@@H](C(=O)N2C[C@H](O)C[C@H]2C2=NO[C@](C)(c3ccc(Br)cc3)N2)C(C)C)on1 (mixture of isomers) [Example 113.3, (2S)-1-((2S,4R)-2-(5-(4-Bromophenyl)-5-methyl-4,5-dihydro-1,2,4-oxadiazol-3-yl)-4-hydroxypyrrolidin-1-yl)-3-methyl-2-(3-methylisoxazol-5-yl)butan-1-one and (2R)-1-((2S,4R)-2-(5-(4-Bromophenyl)-5-methyl-4,5-dihydro-1,2,4-oxadiazol-3-yl)-4-hydroxypyrrolidin-1-yl)-3-methyl-2-(3-methylisoxazol-5-yl)butan-1-one] | 90.8 | 100 | 400
14 | Cc1cc([C@H](C(=O)N2C[C@H](O)C[C@H]2C2=NO[C@@](c3ccccc3)(C(F)(F)F)N2)C(C)C)on1 (mixture of isomers) [Example 114.3, (2S)-1-((2S,4R)-4-Hydroxy-2-(5-phenyl-5-(trifluoromethyl)-4,5-dihydro-1,2,4-oxadiazol-3-yl)pyrrolidin-1-yl)-3-methyl-2-(3-methylisoxazol-5-yl)butan-1-one and (2R)-1-((2S,4R)-4-Hydroxy-2-(5-phenyl-5-(trifluoromethyl)-4,5-dihydro-1,2,4-oxadiazol-3-yl)pyrrolidin-1-yl)-3-methyl-2-(3-methylisoxazol-5-yl)butan-1-one] | 8.8 | 48.8 | 47
15 | Cc1cc([C@H](C(=O)N2C[C@H](O)C[C@H]2C2=NOC(c3ccccc3)(c3ccccc3)N2)C(C)C)on1 [Example 132.2, (R)-1-((2S,4R)-2-(5,5-diphenyl-4,5-dihydro-1,2,4-oxadiazol-3-yl)-4-hydroxypyrrolidin-1-yl)-3-methyl-2-(3-methylisoxazol-5-yl)butan-1-one] | 12.6 | 39.4 | 45.7
16 | Cc1ncsc1-c1ccc([C@]2(C)NC(C3C[C@@H](O)CN3C(=O)C(c3cnn(C)c3)C(C)C)=NC2=O)cc1 (single isomer, unassigned) [Example 110.2] | 104 | ≥ 100 | ≥ 400
17 | Cc1ncsc1-c1ccc([C@]2(C)NC(C3C[C@@H](O)CN3C(=O)C(c3cc(O)no3)C(C)C)=NC2=O)cc1 (single isomer, unassigned) [Example 116.1] | 5.1 | 100 | 4.35
18 | Cc1cc(C(C(=O)N2C[C@H](O)CC2C2=NC(=O)[C@](C)(c3ccc(-c4scnc4C)cc3)N2)C(C)C)sn1 (single isomer, unassigned) [Example 119.1] | 150 | 100 | ≥ 400
19 | CC/C(=C(\c1ccc(O)cc1)c1ccc(OCCN(C)C(=O)CCCOCCOc2cc(C(C(=O)N3C[C@H](O)CC3C3=NC(=O)[C@](C)(c4ccc(-c5scnc5C)cc4)N3)C(C)C)on2)cc1)c1ccccc1 (single isomer, unassigned) [Example 1003.1] | 67.1 | ≥ 100 | ≥ 400
20 | Cc1ncsc1-c1ccc([C@]2(C)NC(C3C[C@@H](O)CN3C(=O)[C@H](C(C)C)N3Cc4ccccc4C3=O)=NC2=O)cc1 (single isomer, unassigned) [Example 123.2] | 3.98 | 5.48 | 4.68
21 | Cc1cc(C(C(=O)N2C[C@H](O)CC2C2=NC(=O)[C@](C)(c3ccc(-c4scnc4C)cc3)N2)C(C)C)sn1 (single isomer, unassigned) [Example 119.4] | 150 | 100 | ≥ 400
22 | Cc1ncsc1-c1ccc([C@]2(C)NC(C3C[C@@H](O)CN3C(=O)C(c3cc(O)no3)C(C)C)=NC2=O)cc1 (single isomer, unassigned) [Example 116.4] | 5.3 | 100 | 35.4
